Source: patent publication US9782395B2, “2,4-thiazolidinedione derivatives in the treatment of central nervous system disorders” (MINORYX THERAPEUTICS S.L., priority 2014, dated 2017)
Where two headings read alike, the source gives them in different places.

Assays:
[1] = Brain plasma ratio at Cmax after single oral dose of Pioglitazone; type: in vivo, male C57BL/6 mice; conditions: male, C57BL/6, mouse, single oral Pioglitazone 4.5 mg/kg, parent and metabolites quantified, read-out: percentage brain plasma ratio
Procedure: The brain plasma ratios of Pioglitazone, MIV, MIII and MII following oral dosing of a single administration of Pioglitazone at 4.5 mg/kg in male C57BL/6 mice.
The brain-plasma ratio was calculated based on levels of Pioglitazone, MIV, MIII and MII in plasma and brain quantified at C max (maximal concentration) following oral dosing of a single administration of Pioglitazone at 4.5 mg/kg in male C57BL/6 mice.

[2] = diabetic preclinical models; cited from earlier work
[3] = Pharmacokinetic profile and brain distribution after single oral and intravenous dose; type: in vivo, male C57 BL/6 mice
Procedure: Protocol: Pharmacokinetic parameters and brain distribution of 5-(4-(2-(5-(1-hydroxyethyl)pyridine-2-yl)ethoxy)benzyl)thiazolidine-2,4-dione (racemate or stereoisomers) following single oral (4.5 mg/kg) and intravenous (1 mg/kg) dose administration to male C57 BL/6 mice were determined. Blood samples and brain samples were collected pre-dosing and different times post dosing for both oral and i.v pharmacokinetics. All samples were processed for analysis by protein precipitation using acetonitrile and analyzed with fit-for-purpose LC/MS/MS method. The lower limit of quantification (LLOQ) in plasma and brain for 5-(4-(2-(5-(1-hydroxyethyl)pyridine-2-yl)ethoxy)benzyl)thiazolidine-2,4-dione (1) is 0.99 ng/mL. Pharmacokinetic parameters were calculated using the non-compartmental analysis tool of Phoenix WinNonlin.

[4] = Brain plasma ratio from AUC of plasma and brain profiles after single oral dose of Pioglitazone or MIV; type: in vivo, male C57BL/6 mice; conditions: male, C57BL/6, mouse, single oral 4.5 mg/kg of the compound itself, read-out: percentage brain-plasma ratio
Procedure: The brain plasma ratios of Pioglitazone and MIV and following oral dosing of a single administration of either Pioglitazone or M-IV both at 4.5 mg/kg in male C57BL/6 mice. […] The brain-plasma ratio was calculated based on the pharmacokinetics curves of plasma and brain concentration-time profiles calculated as area under the curves of Pioglitazone and following oral dosing of a single administration of either Pioglitazone or MIV both at 4.5 mg/kg in male C57BL/6 mice.

[5] = system: primary rat cortical neurons injured by glutamate; experiment: Primary cortical neurons injured by glutamate, survival by MTT; type: cell-based
Procedure: Protocol: Rat cortical neurons were cultured as described by Singer (J Neurosci. 1999 Apr. 1; 19(7):2455-63) and Callizot (J Neurosci Res. 2013 May; 91(5):706-16).
Foetuses were collected and immediately placed in ice-cold Leibovitz medium. Cortex was treated with a trypsin-EDTA solution and the dissociation was stopped by addition of Dulbecco's modified Eagle's medium (DMEM) with glucose (Pan Biotech), containing DNAse I and 10% fetal calf serum (FCS). Cells were mechanically dissociated and centrifuged. The pellet was resuspended in a defined culture medium with 10 ng/ml of brain-derived neurotrophic factor (BDNF). The cells were seeded in 96-well plates precoated with poly-L-lysine and were cultured at 37°. The medium was changed every 2 days. The cortical neurons were intoxicated with glutamate after 13 days of culture.
Briefly, on day 13 of culture, BDNF and test compound were pre-incubated with primary cortical neurons for 1 hour before glutamate exposure. Glutamate was added to a final concentration of 40 μM diluted in control medium in presence of BDNF or test compound for 20 min.
After 20 min, glutamate was washed out and fresh culture medium with BDNF or test compound was added for additional 48 hours. The survival evaluation was done by a MTT assay performed with CellTiter 96® Aqueous One Solution Cell Proliferation Assay (Promega).

[6] = biological target: T1, Human recombinant monoamine oxidase MAO-B (Homo sapiens, UniProt P27338); experiment: MAO-B inhibition, kynuramine fluorescence assay; type: biochemical
T1 construct: purchased Sigma Aldrich M7441
T1 sequence (P27338 1-520): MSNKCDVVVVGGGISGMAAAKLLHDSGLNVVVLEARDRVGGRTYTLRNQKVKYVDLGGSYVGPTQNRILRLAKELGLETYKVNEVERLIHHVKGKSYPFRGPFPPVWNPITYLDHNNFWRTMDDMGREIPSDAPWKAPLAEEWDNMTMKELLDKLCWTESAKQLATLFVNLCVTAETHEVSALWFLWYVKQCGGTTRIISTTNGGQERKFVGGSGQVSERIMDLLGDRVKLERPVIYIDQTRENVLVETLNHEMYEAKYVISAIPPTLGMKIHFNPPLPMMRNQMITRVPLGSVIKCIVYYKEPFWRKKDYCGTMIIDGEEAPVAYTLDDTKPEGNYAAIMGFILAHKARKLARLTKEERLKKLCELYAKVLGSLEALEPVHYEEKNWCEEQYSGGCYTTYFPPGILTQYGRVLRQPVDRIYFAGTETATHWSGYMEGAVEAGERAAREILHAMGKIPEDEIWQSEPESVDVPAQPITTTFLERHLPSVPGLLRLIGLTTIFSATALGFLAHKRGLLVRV
Description: (§1) Protocol: Human recombinant monoamine oxidase proteins MAO-A and MAO-B were purchased from Sigma Aldrich (Reference M7316 and M7441 respectively). In order to monitor the MAO enzymatic activities and their inhibition rate a fluorescence based assay was used. The substrate for the assay, kynuramine, is non-fluorescent until undergoing oxidative deamination by MAOs resulting in the fluorescent product 4-hydroxyquinoline. Kynuramine is a substrate for both MAO-A and -B (non-specific substrate). Clorgiline and Deprenyl (Sigma Aldrich) were used as controls for specific inhibition of MAO-A and MAO-B respectively.

[7] = biological target: T2, Human recombinant monoamine oxidase MAO-A (Homo sapiens, UniProt P21397); experiment: MAO-A inhibition, kynuramine fluorescence assay; type: biochemical
T2 construct: purchased Sigma Aldrich M7316
T2 sequence (P21397 1-527): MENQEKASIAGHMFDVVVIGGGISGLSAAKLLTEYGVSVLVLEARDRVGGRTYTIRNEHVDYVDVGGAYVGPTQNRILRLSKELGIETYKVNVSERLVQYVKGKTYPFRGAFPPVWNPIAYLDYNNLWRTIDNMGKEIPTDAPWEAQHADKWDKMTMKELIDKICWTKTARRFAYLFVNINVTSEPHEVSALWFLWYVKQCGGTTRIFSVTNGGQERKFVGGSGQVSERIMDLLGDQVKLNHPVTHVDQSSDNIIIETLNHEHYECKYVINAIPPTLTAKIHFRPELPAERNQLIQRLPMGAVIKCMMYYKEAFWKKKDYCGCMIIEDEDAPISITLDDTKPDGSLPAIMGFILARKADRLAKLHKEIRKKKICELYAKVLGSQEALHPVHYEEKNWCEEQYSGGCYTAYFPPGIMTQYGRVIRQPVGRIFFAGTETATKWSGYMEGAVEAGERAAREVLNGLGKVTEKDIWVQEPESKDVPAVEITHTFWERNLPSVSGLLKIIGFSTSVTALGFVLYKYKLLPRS
Description: as §1

[8] = system: X-linked adrenoleukodystrophy fibroblasts; experiment: X-ALD patient fibroblasts, cell survival (MTT); type: cell-based, human; conditions: at 3, M, vs non-treated, 24 hours
Procedure: Human control and X-linked adrenoleukodystrophy fibroblasts were obtained from Coriell (Candem, USA). Cells were grown in Dulbecco's modified Eagle medium containing 10% foetal bovine serum, 100 U/ml penicillin and […], at 37° C. in humidified 95% air/5% CO2, to 80-90% confluence. To perform our experiments, Dulbecco's modified Eagle medium without D-glucose, pyruvate or L-glutamine was used. Cells were cultured in this medium supplemented with 1 g/l of glucose or 1 g/l of galactose and 10% foetal bovine serum for 24 hours incubated with increasing doses of MIV (3, 10 and 30 μM).
The determination of MTT was performed as described by Mosmann J. Immunol. Methods 1983, 65, 55-63 and by Hansen J. Immunol. Methods 1989; 119, 203-210. This method is based on the ability of viable but not dead cells to convert the tetrazolium salt (MTT) to colored formazan.
For the determination of ATP levels, 2×10^4 cells/well were seeded in 96 well cell culture plate in complete medium. After 16-18 h cells, were lysed in 20 μl lysis buffer and 10 μl of lysate was used to measure ATP levels using ATP determination Kit (Molecular Probes, Invitrogen). 1 μl each of the remaining lysate was used for protein measurement.

[9] = system: Rat spinal cord (SC) motor neurons injured by glutamate; experiment: Spinal cord motor neurons injured by glutamate, survival by MAP-2 immunostaining; type: cell-based; conditions: 1 μM, glutamate 10 μM 20 min, 48 hours, p<0.05
Procedure: Protocol: Rat spinal cord (SC) motor neurons were cultured as described by Martinou (Neuron. 1992 April; 8(4):737-44) and Wang (PLoS Genet. 2013; 9(9)). Briefly, pregnant female rats of 14 days gestation were killed by cervical dislocation and foetuses were collected and immediately placed in ice-cold L15 Leibovitz medium. Spinal cord was treated for 20 min at 37° C. with a trypsin-EDTA. The dissociation was stopped by addition of Dulbecco's modified Eagle's medium (DMEM) with glucose (Pan Biotech), containing DNAse I and 10% fetal calf serum (FCS). Cells were mechanically dissociated and they were then centrifuged. The pellet was resuspended in a defined culture medium with 10 ng/ml of brain-derived neurotrophic factor (BDNF). The cells were seeded in 96-well plates precoated with poly-L-lysine and were cultured at 37°. The medium was changed every 2 days.
Briefly, on day 13 of culture, BDNF or test compound was pre-incubated with primary Spinal cord (SC) motor neurons for 1 hour before glutamate exposure. Glutamate was added to a final concentration of 10 μM diluted in control medium in presence of BDNF or test compound for 20 min. […]
For each condition 6 wells were assessed, 30 pictures per well were taken using ImageXpress (Molecular Device) with 20× magnification. […]

[10] = system: experimental autoimmune encephalomyelitis (EAE)

CCc1ccc(C(O)COc2ccc(CC3SC(=O)NC3=O)cc2)nc1 (stereo not shown) [MII]
Kp ([1]; in vivo): 0.01 | pharmacological activity relative to Pioglitazone [2]: less active than Pioglitazone

CC(O)c1ccc(CCOc2ccc(CC3SC(=O)NC3=O)cc2)nc1 (racemic) [compound (1), 5-[4-[2-(5-(1-hydroxyethyl)-2-pyridinyl)ethoxy]benzyl]-2,4-thiazolidinedione]
brain concentrations observed until ([3]; both intravenous and oral profiles): 8 h | Kp ([3]; male, mouse, brain and plasma, C57BL/6 mice, single oral 4.5 mg/kg / i.v. 1 mg/kg, read-out: brain-to-plasma exposure (AUClast) ratio): 0.12 | bioavailability ([3]; male, mouse, plasma, oral 4.5 mg/kg vs i.v. 1 mg/kg, C57BL/6 mice): 85% | clearance ([3]; male, mouse, plasma, single intravenous 1 mg/kg, C57BL/6 mice, read-out: systemic plasma clearance): 11.8 mL/min/kg | half-life ([3]; male, mouse, plasma, single intravenous 1 mg/kg, C57BL/6 mice, read-out: terminal elimination plasma half-life (converted)): 107 min | Tmax ([3]; male, mouse, plasma, single oral 4.5 mg/kg, C57BL/6 mice, read-out: Tmax in plasma): 30 min | Tmax ([3]; male, mouse, C57BL/6 mice, brain, read-out: Tmax in brain): 30 min | plasma concentrations observed until ([3]; single oral 4.5 mg/kg, 1 animal): 24 h | Kp ([1]; brain and plasma): 0.13 | Kp [4]: 0.12 | protective effect on glutamate injury (survival, MTT) ([5]; 3 μM, glutamate 40 μM 20 min, 48 hours): full protective effect | IC50 [6]: 70.5 nM | inhibition of MAO A protein [7]: did not inhibit | increase in cell survival [8]: 20% | effect on cell survival vs the control with glutamate [9]: protective effect | development and severity of EAE (clinical scores) ([10]; bid from day 5 post immunization for 15 days, three increasing doses): reduces the development and severity | body weight loss associated to treatment ([10]; mouse, in vivo): No body weight loss | hematological toxicity associated to treatment ([10]; mouse, in vivo): no significant hematological toxicity

CCc1ccc(CCOc2ccc(CC3SC(=O)NC3=O)cc2)nc1 (stereo not shown) [Pioglitazone, reference compound]
Kp ([1]; brain and plasma): 0.09 | Kp [4]: 0.08

CC(=O)c1ccc(CCOc2ccc(CC3SC(=O)NC3=O)cc2)nc1 (stereo not shown) [MIII, 5-(4-(2-(5-acetyl-2-pyridyl)ethoxy)benzyl)-2,4-thiazolidinedione]
Kp ([1]; brain and plasma): 0.07 | pharmacological activity relative to Pioglitazone [2]: less active than Pioglitazone

B1: BDNF: brain-derived neurotrophic factor, reference compound (protein, UniProt P23560 19-247, looked up)
Neurotrophic factor BDNF …: APMKEANIRGQGGLAYPGVRTHGTLESVNGPKAGSRGLTSLADTFEHVIEELLDEDQKVRPNEENNKDADLYTSRVMLSSQVPLEPPLLFLLEEYKNYLDAANMSMRVRRHSDPARRGELSVCDSISEWVTAADKKTAVDMSGGTVTVLEKVPVSKGQLKQYFYETKCNPMGYTKEGCRGIDKRHWNSQCRTTQSYVRALTMDSKKRIGWRFIRIDTSCVCTLTIKRGR
protective effect on glutamate injury (survival, MTT) ([5]; 50 ng/ml, reference compound): full protective effect
